The values below come from article PMC3748743 (Analytical chemistry, 2013).

This test addresses BoNT/A (Clostridium botulinum, UniProt P0DPI1). It is filed as biochemical.

Chain of BoNT/A (P0DPI1 whole entry, looked up): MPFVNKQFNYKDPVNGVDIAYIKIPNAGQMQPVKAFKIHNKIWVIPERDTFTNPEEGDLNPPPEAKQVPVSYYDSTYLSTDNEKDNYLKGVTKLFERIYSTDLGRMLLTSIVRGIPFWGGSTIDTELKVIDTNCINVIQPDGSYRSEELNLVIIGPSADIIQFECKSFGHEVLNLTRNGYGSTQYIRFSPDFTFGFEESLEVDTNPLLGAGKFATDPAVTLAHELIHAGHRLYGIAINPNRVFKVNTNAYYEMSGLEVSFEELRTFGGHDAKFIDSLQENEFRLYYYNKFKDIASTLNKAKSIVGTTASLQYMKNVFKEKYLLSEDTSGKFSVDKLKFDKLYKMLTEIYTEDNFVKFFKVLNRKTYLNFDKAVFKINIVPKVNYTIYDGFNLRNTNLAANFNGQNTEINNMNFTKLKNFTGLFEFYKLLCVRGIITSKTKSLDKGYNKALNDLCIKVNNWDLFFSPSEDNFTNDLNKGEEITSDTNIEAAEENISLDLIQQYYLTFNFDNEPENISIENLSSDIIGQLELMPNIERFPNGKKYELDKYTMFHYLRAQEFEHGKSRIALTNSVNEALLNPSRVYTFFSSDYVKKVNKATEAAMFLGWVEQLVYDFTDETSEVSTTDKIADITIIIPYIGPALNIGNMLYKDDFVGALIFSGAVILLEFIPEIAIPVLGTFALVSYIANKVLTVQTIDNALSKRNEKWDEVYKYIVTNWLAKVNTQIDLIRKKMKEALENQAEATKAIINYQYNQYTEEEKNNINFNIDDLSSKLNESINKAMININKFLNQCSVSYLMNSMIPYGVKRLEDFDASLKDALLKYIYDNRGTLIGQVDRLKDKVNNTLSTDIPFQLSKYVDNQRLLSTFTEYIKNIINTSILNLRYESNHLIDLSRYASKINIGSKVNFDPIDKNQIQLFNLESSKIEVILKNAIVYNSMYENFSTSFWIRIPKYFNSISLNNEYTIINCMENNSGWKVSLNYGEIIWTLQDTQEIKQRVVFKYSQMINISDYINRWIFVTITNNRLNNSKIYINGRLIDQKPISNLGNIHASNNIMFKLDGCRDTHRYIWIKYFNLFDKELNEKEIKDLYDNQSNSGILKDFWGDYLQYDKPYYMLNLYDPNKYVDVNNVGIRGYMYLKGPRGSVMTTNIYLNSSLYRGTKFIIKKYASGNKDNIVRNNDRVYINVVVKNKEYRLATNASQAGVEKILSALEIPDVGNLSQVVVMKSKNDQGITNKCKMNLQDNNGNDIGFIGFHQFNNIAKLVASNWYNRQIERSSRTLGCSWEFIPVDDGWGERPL

As to TPEN, the “Effect on fluorescent signal of BoNT/A ALISSA” value is “significant suppression of fluorescent signal”.
